{"source": "ChEMBL document CHEMBL1201862", "about": "“PubChem BioAssay data set” (2004)", "key": {"Melanocortin receptor 4": {"molecular_target": "Melanocortin receptor 4 (Homo sapiens, UniProt P32245)", "sequence (P32245 whole entry)": "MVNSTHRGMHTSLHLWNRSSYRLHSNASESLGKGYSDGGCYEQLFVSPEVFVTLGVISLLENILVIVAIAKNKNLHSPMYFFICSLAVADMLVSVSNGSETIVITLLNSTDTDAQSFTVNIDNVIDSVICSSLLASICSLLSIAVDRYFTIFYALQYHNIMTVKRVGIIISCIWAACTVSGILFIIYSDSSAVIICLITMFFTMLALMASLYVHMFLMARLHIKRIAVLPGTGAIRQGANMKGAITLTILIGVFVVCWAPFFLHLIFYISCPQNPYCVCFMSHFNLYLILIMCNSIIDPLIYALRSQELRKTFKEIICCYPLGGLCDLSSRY", "format": "functional, cell-based"}, "Cytochrome P450 3A4": {"molecular_target": "Cytochrome P450 3A4 (Homo sapiens, UniProt P08684)", "sequence (P08684 whole entry)": "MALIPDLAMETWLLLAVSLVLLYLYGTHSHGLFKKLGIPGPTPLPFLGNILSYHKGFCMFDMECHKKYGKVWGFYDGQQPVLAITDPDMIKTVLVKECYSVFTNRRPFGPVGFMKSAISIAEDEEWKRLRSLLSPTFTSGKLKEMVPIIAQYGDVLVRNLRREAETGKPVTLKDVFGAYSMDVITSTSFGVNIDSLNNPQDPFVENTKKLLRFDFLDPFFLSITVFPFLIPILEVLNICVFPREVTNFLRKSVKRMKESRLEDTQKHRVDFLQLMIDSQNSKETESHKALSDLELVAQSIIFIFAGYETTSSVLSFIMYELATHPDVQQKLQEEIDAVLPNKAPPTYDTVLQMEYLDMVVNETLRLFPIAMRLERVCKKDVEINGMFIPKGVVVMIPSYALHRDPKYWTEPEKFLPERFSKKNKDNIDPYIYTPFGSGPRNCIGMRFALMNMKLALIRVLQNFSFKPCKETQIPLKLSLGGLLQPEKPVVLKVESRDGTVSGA"}, "[1]": {"assay": "non-specific 3'UTR reporter inhibition in Clone20-Shn3RL – cell-based, Renilla luciferase, cherry-picked, counter-screen for Shn3 inhibitor project, dose response (AID 624133)", "format": "functional"}, "Cytochrome P450 2D6": {"molecular_target": "Cytochrome P450 2D6 (Homo sapiens, UniProt P10635)", "sequence (P10635 whole entry)": "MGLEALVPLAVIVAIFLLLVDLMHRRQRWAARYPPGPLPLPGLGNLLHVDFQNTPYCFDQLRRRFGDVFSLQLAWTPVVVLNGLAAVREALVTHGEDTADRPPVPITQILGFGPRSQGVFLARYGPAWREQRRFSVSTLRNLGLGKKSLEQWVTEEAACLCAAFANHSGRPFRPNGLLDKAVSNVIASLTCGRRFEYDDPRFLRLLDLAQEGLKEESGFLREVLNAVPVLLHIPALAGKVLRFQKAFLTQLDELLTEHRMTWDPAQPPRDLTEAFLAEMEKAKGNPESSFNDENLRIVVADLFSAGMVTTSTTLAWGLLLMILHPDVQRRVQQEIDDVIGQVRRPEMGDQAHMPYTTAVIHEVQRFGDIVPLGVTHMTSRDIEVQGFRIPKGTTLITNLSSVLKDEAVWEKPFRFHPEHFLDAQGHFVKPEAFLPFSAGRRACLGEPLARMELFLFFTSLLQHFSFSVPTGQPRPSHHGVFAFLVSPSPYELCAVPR"}, "[2]": {"assay": "reduction of Shn3 3'UTR-driven luciferase in osteoblasts – cell-based, Clone20 osteoblasts, firefly luciferase, cherry-picked, dose response (AID 624132)", "format": "functional"}, "[3]": {"assay": "Counterscreen for inhibitors of Trypanosoma brucei methionyl tRNA synthetase (MetRS): Luminescence-based cell-based high throughput dose response assay to identify compounds that are cytotoxic to Jurkat human T lymphocyte cells.", "format": "functional"}, "[4]": {"molecular_target": "T1, Methionyl-tRNA synthetase, putative (Trypanosoma brucei brucei, UniProt Q38C91)", "T1 sequence (Q38C91 whole entry)": "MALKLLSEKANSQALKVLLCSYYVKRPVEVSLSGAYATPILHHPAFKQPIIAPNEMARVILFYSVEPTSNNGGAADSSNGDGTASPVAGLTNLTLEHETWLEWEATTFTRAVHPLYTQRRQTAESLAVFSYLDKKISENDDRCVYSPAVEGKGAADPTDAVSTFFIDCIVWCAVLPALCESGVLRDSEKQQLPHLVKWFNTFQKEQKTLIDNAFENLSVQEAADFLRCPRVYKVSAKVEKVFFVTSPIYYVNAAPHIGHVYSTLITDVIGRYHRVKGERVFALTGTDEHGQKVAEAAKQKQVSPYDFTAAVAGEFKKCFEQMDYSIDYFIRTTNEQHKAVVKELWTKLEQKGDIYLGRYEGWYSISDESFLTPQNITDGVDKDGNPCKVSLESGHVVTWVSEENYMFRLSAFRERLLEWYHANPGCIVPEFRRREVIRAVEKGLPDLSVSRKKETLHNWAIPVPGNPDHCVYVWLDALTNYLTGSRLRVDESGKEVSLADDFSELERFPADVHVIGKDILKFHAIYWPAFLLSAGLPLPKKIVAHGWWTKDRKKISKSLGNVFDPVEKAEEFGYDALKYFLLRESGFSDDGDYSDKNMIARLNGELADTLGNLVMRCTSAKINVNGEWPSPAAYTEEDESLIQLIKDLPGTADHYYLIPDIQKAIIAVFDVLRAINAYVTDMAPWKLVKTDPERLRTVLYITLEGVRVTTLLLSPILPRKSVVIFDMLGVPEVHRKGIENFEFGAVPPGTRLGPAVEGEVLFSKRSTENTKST", "format": "functional, Trypanosoma brucei brucei strain 927/4 GUTat10.1"}, "Cytochrome P450 2C9": {"molecular_target": "Cytochrome P450 2C9 (Homo sapiens, UniProt P11712)", "sequence (P11712 whole entry)": "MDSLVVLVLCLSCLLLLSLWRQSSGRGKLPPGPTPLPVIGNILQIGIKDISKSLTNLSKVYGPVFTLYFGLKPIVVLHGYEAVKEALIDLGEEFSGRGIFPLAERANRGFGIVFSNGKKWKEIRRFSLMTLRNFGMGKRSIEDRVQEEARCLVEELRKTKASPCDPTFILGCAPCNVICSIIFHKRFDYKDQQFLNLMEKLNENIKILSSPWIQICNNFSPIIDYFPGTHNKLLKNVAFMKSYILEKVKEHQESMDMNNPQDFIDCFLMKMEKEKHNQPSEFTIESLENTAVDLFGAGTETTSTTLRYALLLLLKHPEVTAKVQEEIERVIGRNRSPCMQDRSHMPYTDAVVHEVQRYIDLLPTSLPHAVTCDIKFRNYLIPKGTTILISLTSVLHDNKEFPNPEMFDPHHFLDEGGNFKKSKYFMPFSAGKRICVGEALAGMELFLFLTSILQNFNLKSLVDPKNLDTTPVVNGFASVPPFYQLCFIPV"}, "[5]": {"molecular_target": "T1, Methionyl-tRNA synthetase, putative", "format": "functional, Trypanosoma brucei brucei strain 927/4 GUTat10.1", "remark": "listed apart in the source"}, "[6]": {"assay": "loss of viability in HepG2 cells – cell-based, CellTiter-Glo, cherry-picked, cytotoxicity control for Shn3 inhibitor project, dose response (AID 624134)", "format": "functional"}, "Cytochrome P450 2C19": {"molecular_target": "Cytochrome P450 2C19 (Homo sapiens, UniProt P33261)", "sequence (P33261 whole entry)": "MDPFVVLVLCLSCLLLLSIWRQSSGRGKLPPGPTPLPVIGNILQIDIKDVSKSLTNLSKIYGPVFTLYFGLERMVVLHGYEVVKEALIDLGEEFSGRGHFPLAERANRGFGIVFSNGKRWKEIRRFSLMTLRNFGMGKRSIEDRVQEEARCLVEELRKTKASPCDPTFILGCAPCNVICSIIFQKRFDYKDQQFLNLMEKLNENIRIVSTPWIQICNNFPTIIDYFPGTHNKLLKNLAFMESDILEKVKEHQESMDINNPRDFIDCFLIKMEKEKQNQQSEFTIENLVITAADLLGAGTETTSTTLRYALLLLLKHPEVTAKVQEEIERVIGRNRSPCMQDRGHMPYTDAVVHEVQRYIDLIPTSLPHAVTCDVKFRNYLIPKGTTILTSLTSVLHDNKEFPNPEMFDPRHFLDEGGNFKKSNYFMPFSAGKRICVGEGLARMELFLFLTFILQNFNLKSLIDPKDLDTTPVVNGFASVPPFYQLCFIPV", "assay": "Cytochrome panel assay with activity outcomes. Panel member name: p450-cyp2c19 Compounds with AC50 equal or less than 10 uM are considered active", "format": "functional", "conditions": "read-out: AC50"}, "[7]": {"molecular_target": "Photoreceptor-specific nuclear receptor (Homo sapiens, UniProt Q9Y5X4)", "sequence (Q9Y5X4 whole entry)": "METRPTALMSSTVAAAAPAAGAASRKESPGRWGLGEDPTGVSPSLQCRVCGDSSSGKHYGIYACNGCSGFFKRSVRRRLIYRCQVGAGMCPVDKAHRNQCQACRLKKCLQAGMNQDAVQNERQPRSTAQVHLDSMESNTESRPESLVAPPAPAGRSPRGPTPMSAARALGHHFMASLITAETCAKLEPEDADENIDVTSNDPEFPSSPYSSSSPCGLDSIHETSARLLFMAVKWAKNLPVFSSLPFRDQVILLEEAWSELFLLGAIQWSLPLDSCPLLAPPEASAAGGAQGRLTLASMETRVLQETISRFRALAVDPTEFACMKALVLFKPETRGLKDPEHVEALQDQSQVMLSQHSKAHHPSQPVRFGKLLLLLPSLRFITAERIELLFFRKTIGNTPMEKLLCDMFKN", "format": "functional, cell-based"}, "Paired box protein Pax-8": {"molecular_target": "Paired box protein Pax-8 (Homo sapiens, UniProt Q06710)", "sequence (Q06710 whole entry)": "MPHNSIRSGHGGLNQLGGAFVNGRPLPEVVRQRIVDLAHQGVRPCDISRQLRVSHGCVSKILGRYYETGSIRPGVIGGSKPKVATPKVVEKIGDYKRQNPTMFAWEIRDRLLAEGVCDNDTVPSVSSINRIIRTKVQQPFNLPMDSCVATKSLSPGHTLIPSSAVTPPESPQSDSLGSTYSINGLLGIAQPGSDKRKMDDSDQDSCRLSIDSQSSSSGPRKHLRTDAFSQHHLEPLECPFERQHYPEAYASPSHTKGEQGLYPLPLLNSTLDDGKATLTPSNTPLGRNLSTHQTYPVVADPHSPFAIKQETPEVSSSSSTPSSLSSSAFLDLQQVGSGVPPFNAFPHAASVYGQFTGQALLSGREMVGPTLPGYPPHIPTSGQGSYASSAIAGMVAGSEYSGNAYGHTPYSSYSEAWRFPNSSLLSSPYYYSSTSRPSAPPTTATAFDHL", "assay": "PAX8 transcriptional activity inhibition in RMG-I – RMG-I cells, luciferase, cherry-pick, dose response (AID 687027);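 further: luciferase reporter driven by Pax8 target thyroperoxidase promoter measured by SteadyGlo luminescence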", "format": "functional, cell-based"}, "Interleukin-8 [8]": {"molecular_target": "T2, Interleukin-8 (Homo sapiens, UniProt P10145)", "T2 sequence (P10145 whole entry)": "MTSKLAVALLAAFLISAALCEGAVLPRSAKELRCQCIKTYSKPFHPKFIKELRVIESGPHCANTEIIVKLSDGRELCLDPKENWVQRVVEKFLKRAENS", "assay": "Dose Response confirmation of uHTS small molecule hits for cystic fibrosis induced NFkb Inhibitors in a PAF-induced IL8 counterscreen.", "format": "functional", "conditions": "read-out: IC50_Mean"}, "Interleukin-8 [9]": {"molecular_target": "T2, Interleukin-8", "assay": "Dose Response confirmation of uHTS small molecule hits for cystic fibrosis induced NFkb Inhibitors in a TNFa-induced IL8 counterscreen.", "format": "functional", "conditions": "read-out: IC50_Mean"}}, "note": "Activity calls are given as the source filed them.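 Wherever EC50 is given: Cell-based assay with luminescence read-out, confirmatory dose-response testing for agonist activity of biased ligands at MC4R; human U2OS cells with tagged receptor and beta-arrestin; potency of agonists that increase receptor coupling to beta-arrestin.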"}
{"smiles": "COc1ccc(-c2cnc3c(NC(C)=O)cc(-c4cc(F)ccc4OC)cn23)cc1OC", "values": [{"measurement": "EC50", "setting": "Melanocortin receptor 4", "value": "> 89.2 µM (inactive)"}]}
{"smiles": "Nc1nc(N)c(-c2cccc(C(F)(F)F)c2)c(Cc2cccc(C(F)(F)F)c2)n1", "values": [{"measurement": "AC50", "setting": "Cytochrome P450 3A4", "value": "3.16 µM (inconclusive)"}, {"measurement": "AC50", "setting": "[1]", "value": "3.87 µM (active)"}, {"measurement": "AC50", "setting": "Cytochrome P450 2D6", "value": "3.98 µM (inconclusive)"}, {"measurement": "AC50", "setting": "[2]", "value": "3.6 µM (active)"}, {"measurement": "IC50", "setting": "[3]", "value": "20.7 µM (inactive)"}, {"measurement": "IC50", "setting": "[4]", "value": "12.7 µM (inactive)"}, {"measurement": "AC50", "setting": "Cytochrome P450 2C9", "value": "5.01 µM (inconclusive)"}, {"measurement": "IC50", "setting": "[5]", "value": "19.5 µM (inactive)"}, {"measurement": "AC50", "setting": "[6]", "value": "5.88 µM (active)"}]}
{"smiles": "O=c1cc(N2CCN(c3ccccc3)CC2)[nH]c(=O)n1C1CCCCC1", "values": [{"measurement": "AC50", "setting": "Cytochrome P450 3A4", "value": "6.31 µM (inconclusive)"}, {"measurement": "AC50", "setting": "Cytochrome P450 2C19", "value": "3.16 µM (inconclusive)"}, {"measurement": "IC50", "setting": "[7]", "value": "0.511 µM (active)"}, {"measurement": "AC50", "setting": "Cytochrome P450 2C9", "value": "15.8 µM (inconclusive)"}]}
{"smiles": "CCOC(=O)Nc1ccc2c(c1)N(C(=O)CCN(CC)CC)c1ccccc1[S+]2[O-]", "note": "(configuration not stated)", "values": [{"measurement": "AC50", "setting": "Paired box protein Pax-8", "value": "7.06 µM (active)"}, {"measurement": "IC50", "setting": "Interleukin-8 [8]", "value": "1.12 µM (active)"}, {"measurement": "IC50", "setting": "Interleukin-8 [9]", "value": "1.01 µM (active)"}]}
